Measurements published in US20090305980A1, “Methods and Compositions Related to TR4” (UNIVERSITY OF ROCHESTER, priority 2006, published 2009).

Tests used:
TR4 KO MEFs = assay: Cellular ROS levels by flow cytometry in TR4 KO MEFs; assay type: cell-based, mouse
Experimental: (§1) MEFs from wt and TR4 KO were treated with 200 μM H2O2 for 30 min in the presence/absence of 100 nM of α-tocopherol, and the cellular ROS levels were then measured by flow cytometric analysis. The relative ROS levels were calculated by comparing with untreated MEFs from wt and TR4 KO independently.
(§2) Replicative senescence has been employed as a cellular model for aging and it occurs primarily in response to oxidative DNA damage (Campisi, J. et al. (2005) Cell, 120: 513-522). Wt MEFs grow well for approximately 2-3 doublings (P2-3) before decreasing in proliferation, and after 8-10 doublings, the cell senescence occurs. In contrast, TR4 KO MEFs proliferation drastically decline after P4 (FIG. 4A). ROS contribute to cells senescence, and how cells respond to oxidative stress would determine the life span. The amounts of cellular ROS in MEFs were determined by flow cytometry using DCFH-DA. […] When MEFs were exposed to H2O2 and measured cellular ROS levels, the amounts of fluorescence in both in wt and TR4 KO increased after H2O2 treatment; TR4 KO MEFs accumulated more ROS than wt MEFs.
To test if TR4 is involved in low molecular weight antioxidant (LMWA), such as vitamin E anti-oxidant effects, fibroblasts from TR4 KO and wt were challenged with 250 μM H2O2 in the presence of 100 nM α-tocopherol and VES.
To determine if TR4 is a mediator for non-enzymatic antioxidants, including vitamin C, vitamin E, β-carotene, and selenium, to suppress ROS production in the cells, cellular ROS levels are examined in LMWA-treated MEFs to antagonize oxidative stress. MEFs from TR4 KO and wt are treated with LMWA with/without H2O2 oxidative stress challenge as ROS levels are measured. The ones that lose its anti-oxidant activity in KO MEFs but not wt MEFs are the candidates. […] Therefore, TR4 is mediated by some LMWAs, such as vitamin E, to suppress cellular ROS production. Herein, the anti-ROS effects are compared on TR4 KO vs wt MEFs in response to other LMWAs. The focus is on how TR4 regulates vitamin E and the other LMWA that lost anti-ROS response in TR4 KO MEFs.

wt MEFs = assay: Cellular ROS levels by flow cytometry in wt MEFs; assay type: cell-based, mouse
Experimental: as §1
as §2, with “ROS contribute to cells senescence, and how cells respond to oxidative stress would determine the life span.” left out, “MEFs. […]” for “MEFs.”
To determine if TR4 is a mediator for non-enzymatic antioxidants, including vitamin C, vitamin E, β-carotene, and selenium, to suppress ROS production in the cells, cellular ROS levels are examined in LMWA-treated MEFs to antagonize oxidative stress. MEFs from TR4 KO and wt are treated with LMWA with/without H2O2 oxidative stress challenge as ROS levels are measured. […]

In the case of Cc1c(C)c2c(c(C)c1O)CC[C@@](C)(CCC[C@H](C)CCC[C@H](C)CCCC(C)C)O2 [vitamin E, α-tocopherol], the “intrinsic and exogenous ROS production” value (TR4 KO MEFs; KO MEFs, 10^−7 M vitamin E) is reported as “not”, the “vitamin E anti-ROS effects (relative ROS levels)” value (TR4 KO MEFs; TR4KO MEFs, 200 μM H2O2 for 30 min, 100 nM α-tocopherol) is reported as “loss of vitamin E anti-ROS effects” and the “ROS (vitamin E-mediated anti-oxidant effect)” value (TR4 KO MEFs; TR4 KO fibroblasts, 250 μM H2O2, 100 nM α-tocopherol and VES) is reported as “lost the vitamin E-mediated anti-oxidant effect”. The “intrinsic and exogenous ROS production” value (wt MEFs; wt MEFs, 10^−7 M vitamin E) was “can reduce” and the “ROS (vitamin E-mediated anti-oxidant effect)” value (wt MEFs; wt fibroblasts, 250 μM H2O2, 100 nM α-tocopherol and VES) was “reduction of ROS”.
